Assay results taken from patent US9963434B2, “N-arylmethyl sulfonamide negative modulators of NR2A” (LUC THERAPEUTICS, priority 2013, dated 2018).
Where two headings read alike, the source gives them in different places.

Molecular target: NR1/NR2A (Homo sapiens (Human), UniProt Q05586+Q12879)
Assay: FDSS Ca2+ influx inhibition assay in HEK293 cells expressing NR1/NR2A
Type: cell-based
Conditions: 3 μM glutamate, 3 μM glycine, 1 mM Ca2+
Experimental: Cell Culture and plating: HEK293 cells expressing NR1/NR2A (Chantest, Cleveland, Ohio) were grown to 70-80% confluency as an adherent monolayer in standard tissue culture flasks at 37° C., 5% CO2 per supplier's instructions.
After induction, cell culture medium was removed and cells were rinsed once with Ca^2+ and Mg^2+-free Dulbecco's phosphate buffered saline. Cells were then removed from the flask using TrypLE™ Express (Life Technologies) according to the manufacturer's instructions and collected to 50 ml centrifuge tubes. Following two washes in Ca^2+/Mg^2+-free HBSS with 20 mM HEPES (HHnoCa), cells were counted and viability assessed using trypan blue. To load cells with Ca^2+-sensitive dye, they were resuspended in fluo-8 plus Component B (AAT Bioquest Products) diluted in HHnoCa and incubated 15 minutes at 37° C., followed by 30 minutes at room temp (in dark). Cells were then washed and resuspended in HHnoCa to remove extracellular dye and plated in 384-well plates (Falcon, uncoated) at 20,000-30,000 cells/well in a final volume of 25 μL/well.
FDSS Assay: To each well of the plate, 10 μL test compound, control (MK801) or HHnoCa buffer was added to a final concentration of 10 μM with a final concentration of DMSO of 0.1%. Following 10 minutes pre-incubation in the dark, plates are loaded onto the Hamamatsu FDSS 6000. After collecting baseline fluorescence images, 3 μM glutamate, 3 μM glycine, and 1 mM Ca^2+ in HHnoCa buffer is added to each well, and Ca^2+ is recorded for 3 minutes. Data were processed by computing ratio of fluorescence at the end of data collection to baseline fluorescence to assess degree of Ca^2+ influx inhibition relative to that observed in MK801.

[1] = inhibition relative to MK801, read-out: NR2A IC50

NR1/NR2A, sequence (Q12879 23-1464, other chains not shown): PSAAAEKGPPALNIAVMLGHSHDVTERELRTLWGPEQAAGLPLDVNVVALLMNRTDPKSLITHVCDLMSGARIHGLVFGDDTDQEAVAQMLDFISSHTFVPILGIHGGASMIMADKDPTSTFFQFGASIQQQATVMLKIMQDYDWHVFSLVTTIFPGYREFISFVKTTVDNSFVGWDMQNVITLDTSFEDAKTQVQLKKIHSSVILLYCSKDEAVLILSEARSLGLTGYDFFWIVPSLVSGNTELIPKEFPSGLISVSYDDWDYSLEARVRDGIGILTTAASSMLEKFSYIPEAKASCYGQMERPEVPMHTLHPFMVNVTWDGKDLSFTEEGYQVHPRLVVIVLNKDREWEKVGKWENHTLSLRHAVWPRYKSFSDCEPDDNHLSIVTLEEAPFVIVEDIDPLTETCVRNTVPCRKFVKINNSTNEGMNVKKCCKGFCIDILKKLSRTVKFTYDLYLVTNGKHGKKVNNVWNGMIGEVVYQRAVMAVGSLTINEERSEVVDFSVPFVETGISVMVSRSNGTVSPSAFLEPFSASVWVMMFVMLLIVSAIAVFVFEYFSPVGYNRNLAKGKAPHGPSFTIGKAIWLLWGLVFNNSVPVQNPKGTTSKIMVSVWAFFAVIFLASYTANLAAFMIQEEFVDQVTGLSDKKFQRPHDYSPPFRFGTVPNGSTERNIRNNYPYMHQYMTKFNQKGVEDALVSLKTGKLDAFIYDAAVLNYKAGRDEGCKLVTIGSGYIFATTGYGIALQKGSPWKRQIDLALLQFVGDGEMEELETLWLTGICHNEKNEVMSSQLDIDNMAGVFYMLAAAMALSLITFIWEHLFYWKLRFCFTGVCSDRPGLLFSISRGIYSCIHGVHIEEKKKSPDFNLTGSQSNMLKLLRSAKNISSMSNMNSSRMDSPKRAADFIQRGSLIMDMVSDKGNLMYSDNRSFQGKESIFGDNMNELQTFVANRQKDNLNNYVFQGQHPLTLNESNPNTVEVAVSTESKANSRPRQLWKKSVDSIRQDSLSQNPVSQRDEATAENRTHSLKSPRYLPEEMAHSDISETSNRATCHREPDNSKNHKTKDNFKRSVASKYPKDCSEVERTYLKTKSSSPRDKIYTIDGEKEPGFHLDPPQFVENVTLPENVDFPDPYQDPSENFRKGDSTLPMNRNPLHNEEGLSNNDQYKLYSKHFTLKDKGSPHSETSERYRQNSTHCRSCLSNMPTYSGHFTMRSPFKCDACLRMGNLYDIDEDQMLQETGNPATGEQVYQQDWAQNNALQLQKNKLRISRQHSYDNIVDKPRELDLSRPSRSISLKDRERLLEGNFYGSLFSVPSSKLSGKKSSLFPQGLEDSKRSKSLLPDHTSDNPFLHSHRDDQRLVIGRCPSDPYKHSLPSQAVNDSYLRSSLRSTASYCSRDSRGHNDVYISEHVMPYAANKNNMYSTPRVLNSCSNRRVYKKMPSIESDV

| IC50 [1] [µM] | IC50 (read-out: Binned Activity) [µM] | Compound |
| --- | --- | --- |
| 10 | > 10 | CN(C)CCCCNC(=O)c1ccc(CNS(=O)(=O)c2ccc(F)c(Cl)c2)nc1 [6-(3-chloro-4-fluorobenzenesulfon-amidomethyl)-N-[4-(dimethylamino)butyl] pyridine-3-carboxamide] |
| – | 0.1 to 1 | O=C(NCc1cncs1)c1ccc(CNS(=O)(=O)c2ccc(F)c(Cl)c2)cn1 [5-(3-chloro-4-fluorobenzenesulfon-amidomethyl)-N-(1,3-thiazol-5-ylmethyl)pyridine-2-carboxamide] |
| – | 1 to 10 | Cc1ncc(CNC(=O)c2cnc(CNS(=O)(=O)c3cccs3)cn2)s1 [N-[(2-methyl-1,3-thiazol-5-yl)methyl]-5-(thiophene-2-sulfonamidomethyl) pyrazine-2-carboxamide] |
| 10 | > 10 | Cc1ncc(CNC(=O)c2cnc(CNS(=O)(=O)c3cc(F)cc(F)c3)cn2)s1 [5-(3,5-difluorobenzenesulfon-amidomethyl)-N-[(2-methyl-1,3-thiazol-5-yl)methyl]pyrazine-2-carboxamide] |
| 10 | > 10 | O=C(NCc1ccco1)c1ccc(CNS(=O)(=O)c2ccc(F)c(Cl)c2)nn1 [6-(3-chloro-4-fluorobenzenesulfon-amidomethyl)-N-(furan-2-ylmethyl)pyridazine-3-carboxamide] |
| 10 | > 10 | Cc1nc(C)c(CNC(=O)c2cnc(CNS(=O)(=O)c3ccc(F)c(Cl)c3)cn2)s1 [5-(3-chloro-4-fluorobenzenesulfon-amidomethyl)-N-[(dimethyl-1,3-thiazol-5-yl)methyl]pyrazine-2-carboxamide] |
| 10 | > 10 | Cc1cc(CNC(=O)c2cnc(CNS(=O)(=O)c3ccc(F)c(Cl)c3)cn2)n(C)n1 [5-(3-chloro-4-fluorobenzenesulfon-amidomethyl)-N-[(1,3-dimethyl-1H-pyrazol-5-yl)methyl]pyrazine-2-carboxamide] |
| – | 1 to 10 | Cn1cncc1CNC(=O)c1ccc(CNS(=O)(=O)c2ccc(F)c(Cl)c2)cn1 [5-(3-chloro-4-fluorobenzenesulfon-amidomethyl)-N-[(1-methyl-1H-imidazol-5-yl)methyl]pyridine-2-carboxamide] |
| – | 1 to 10 | Cc1ncc(CNC(=O)c2cnc(CNS(=O)(=O)c3ccc(F)cc3)cn2)s1 [5-(4-fluorobenzenesulfon-midomethyl)-N-[(2-methyl-1,3-thiazol-5-yl)methyl]pyrazine-2-carboxamide] |
| 10 | > 10 | Cc1ncsc1CNC(=O)c1cnc(CNS(=O)(=O)c2ccc(F)c(Cl)c2)cn1 [5-(3-chloro-4-fluorobenzenesulfon-amidomethyl)-N-[(4-methyl-1,3-thiazol-5-yl)methyl]pyrazine-2-carboxamide] |
| – | 1 to 10 | COc1cc(CNC(=O)c2ccc(CNS(=O)(=O)c3ccc(F)c(Cl)c3)cn2)ccn1 [5-(3-chloro-4-fluorobenzenesulfon-amidomethyl)-N-[(2-methoxypyridin-4-yl)methyl]pyridine-2-carboxamide] |
| 10 | > 10 | O=C(NCc1cncnc1)c1ccc(CNS(=O)(=O)c2ccc(F)c(Cl)c2)nc1 [6-(3-chloro-4-fluorobenzenesulfon-amidomethyl)-N-(pyrimidin-5-ylmethyl)pyridine-3-carboxamide] |
| – | > 10 | C[C@@H](NC(=O)c1cnc(CNS(=O)(=O)c2ccc(F)c(Cl)c2)cn1)c1cncs1 [5-(3-chloro-4-fluorobenzenesulfon-amidomethyl)-N-[(1R)-1-(1,3-thiazol-5-yl)ethyl]pyrazine-2-carboxamide] |
| – | 0.1 to 1 | COc1cc(CNC(=O)c2cnc(CNS(=O)(=O)c3ccc(F)c(Cl)c3)cn2)ccn1 [5-(3-chloro-4-fluorobenzenesulfon-amidomethyl)-N-[(2-methoxypyridin-4-yl)methyl]pyrazine-2-carboxamide] |
| 10 | > 10 | O=C(NCc1ccncc1)c1ccc(CNS(=O)(=O)c2ccc(F)c(Cl)c2)cn1 [5-(3-chloro-4-fluorobenzenesulfon-amidomethyl)-N-(pyridin-4-ylmethyl)pyridine-2-carboxamide] |
| 10 | > 10 | O=C(NC1CCS(=O)(=O)C1)c1ccc(CNS(=O)(=O)c2ccc(F)c(Cl)c2)nc1 (stereo not drawn) [6-(3-chloro-4-fluorobenzenesulfon-amidomethyl)-N-(1,1-dioxo-1λ^6-thiolan-3-yl)pyridine-3-carboxamide] |

| IC50 [1] [µM] | IC50 (read-out: Binned Activity) [µM] | Compound |
| --- | --- | --- |
| – | 0.1 to 1 | Cn1ccnc1CNC(=O)c1ccc(CNS(=O)(=O)c2ccc(F)c(Cl)c2)nc1 [6-(3-chloro-4-fluorobenzenesulfon-amidomethyl)-N-[(1-methyl-1H-imidazol-2-yl)methyl]pyridine-3-carboxamide] |
| 10 | – | Cc1csc(CNC(=O)c2cnc(CNS(=O)(=O)c3ccc(F)c(Cl)c3)cn2)n1 [5-(3-chloro-4-fluorobenzenesulfon-amidomethyl)-N-[(4-methyl-1,3-thiazol-2-yl)methyl]pyrazine-2-carboxamide] |
| 10 | > 10 | Cc1ncc(CNC(=O)c2ccc(CNS(=O)(=O)c3ccc(C(F)(F)F)nc3)cn2)s1 [N-[(2-methyl-1,3-thiazol-5-yl)methyl]-5-[6-(trifluoromethyl)pyridine-3-sulfonamidomethyl] pyridine-2-carboxamide] |
| 10 | > 10 | O=C(NCc1ccccn1)c1ccc(CNS(=O)(=O)c2ccc(F)c(Cl)c2)nc1 [6-(3-chloro-4-fluorobenzenesulfon-amidomethyl)-N-(pyridin-2-ylmethyl)pyridine-3-carboxamide] |
| 10 | > 10 | CC(NC(=O)c1ccc(CNS(=O)(=O)c2ccc(F)c(Cl)c2)nn1)c1ccco1 (stereo not drawn) [6-(3-chloro-4-fluorobenzenesulfon-amidomethyl)-N-[1-(furan-2-yl)ethyl]pyridazine-3-carboxamide] |
| 10 | > 10 | Cc1ncc(CNC(=O)c2cnc(CNS(=O)(=O)c3cc(Cl)cc(Cl)c3)cn2)s1 [5-(3,5-dichlorobenzenesulfon-amidomethyl)-N-[(2-methyl-1,3-thiazol-5-yl)methyl]pyrazine-2-carboxamide] |
| 10 | > 10 | Cc1ncc(CNC(=O)c2cnc(CNS(=O)(=O)c3ccc(Cl)c(Cl)c3)cn2)s1 [5-(3,4-dichlorobenzenesulfon-amidomethyl)-N-[(2-methyl-1,3-thiazol-5-yl)methyl]pyrazine-2-carboxamide] |
| 10 | > 10 | O=C(NC1CCS(=O)(=O)C1)c1cnc(CNS(=O)(=O)c2ccc(F)c(Cl)c2)cn1 (stereo not drawn) [5-(3-chloro-4-fluorobenzenesulfon-amidomethyl)-N-(1,1-dioxo-1λ^6-thiolan-3-yl)pyrazine-2-carboxamide] |
| 10 | > 10 | Cn1nccc1CNC(=O)c1ccc(CNS(=O)(=O)c2ccc(F)c(Cl)c2)cn1 [5-(3-chloro-4-fluorobenzenesulfon-amidomethyl)-N-[(1-methyl-1H-pyrazol-5-yl)methyl]pyridine-2-carboxamide] |
| 10 | > 10 | Cc1ncsc1CNC(=O)c1ccc(CNS(=O)(=O)c2ccc(F)c(Cl)c2)nn1 [6-(3-chloro-4-fluorobenzenesulfon-amidomethyl)-N-[(4-methyl-1,3-thiazol-5-yl)methyl]pyridazine-3-carboxamide] |
| 10 | > 10 | O=C(NCc1cccnc1)c1ccc(CNS(=O)(=O)c2ccc(F)c(Cl)c2)nn1 [6-(3-chloro-4-fluorobenzenesulfon-amidomethyl)-N-(pyridin-3-ylmethyl)pyridazine-3-carboxamide] |
| – | > 10 | O=C(NCc1cccnc1)c1ccc(CNS(=O)(=O)c2ccc(F)c(Cl)c2)nc1 [6-(3-chloro-4-fluorobenzenesulfon-amidomethyl)-N-(pyridin-3-ylmethyl)pyridine-3-carboxamide] |
| 10 | > 10 | COc1ccc(CNC(=O)c2ccc(CNS(=O)(=O)c3ccc(F)c(Cl)c3)cn2)cc1 [5-(3-chloro-4-fluorobenzenesulfon-amidomethyl)-N-[(4-methoxyphenyl)methyl] pyridine-2-carboxamide] |
| 10 | > 10 | Cc1ncc(CNC(=O)c2cnc(CNC(=O)c3cc(F)cc(F)c3)c(C)n2)s1 [5-{[(3,5-difluorophenyl)form-amido]methyl}-6-methyl-N-[(2-methyl-1,3-thiazol-5-yl)methyl]pyrazine-2-carboxamide] |
| 10 | > 10 | Cc1ncc(CNC(=O)c2cnc(CNC(=O)c3cccc(Cl)c3C)c(C)n2)s1 [5-{[(3-chloro-2-methylphenyl)formamido]methyl}-6-methyl-N-[(2-methyl-1,3-thiazol-5-yl)methyl]pyrazine-2-carboxamide] |
| 10 | > 10 | Cc1ncc(CNC(=O)c2ccc(CNS(=O)(=O)c3ccc(Oc4ccccc4)nc3)cn2)s1 [N-[(2-methyl-1,3-thiazol-5-yl)methyl]-5-(6-phenoxypyridine-3-sulfonamidomethyl) pyridine-2-carboxamide] |
